In patent publication US20230099027A1 (priority 2020, published 2023):

Test system: H1N1 Neth09
Format: cell-based, influenza A virus

## PEG8
  virucidal result: did not give virucidal results
